From patent US20240108557A1, “TOPICAL COMPOSITION USEFUL FOR THE DAILY CARE OF ACNE-PRONE SKIN” (Pierre Fabre Dermo-Cosmetique, priority 2021, published 2024)

System: Stratum corneum
Experiment: AFM elastic modulus of Stratum corneum in skin explants (keratolytic effect)
Design: species or system human
Conditions: three topical applications, succinic acid 0.6 wt %, lactic acid 0.36 wt %, alone or combined (ratio 1.67)
Procedure: Keratolytic effect was assessed by observing the skin biomechanical properties modulation (skin stiffness modulation) induced by the tested agents using Atomic Force Microscopy (AFM) in skin explants. • 1 explant by donor and treatment • 3 distinct areas were measured by explant • A minimum of 12 measures by aera
Skin punchs of 1.2 cm were made from breast skin of women between 35 and 43 years old. […] First and second application during 1 hour, and the third-one during 3 hours. […] Mechanical properties of skin explants cryosections have been assessed, at Stratum corneum and epidermis areas, by AFM measurements.
AFM indentation experiments were carried out with a Resolve Bioscope (Bruker Nano Surface, Santa Barbara, CA) that was mounted on an inverted optical DM18 (Leica) and a top view Bruker. All measurements of skin stiffness were performed using cantilevers with conical tips. The cantilever moved with the relief of the skin surface. This deformation was quantified by the deflection of the laser beam who are correlated with biomechanical parameters of skin surface samples. Quantitative measure of elastic modulus was used to assess Stratum corneum or epidermis cell-cell junctions stiffness after treatment.

| SMILES | inhibition of elastic modulus of Stratum corneum (stiffness reduction) compared to untreated control |
| --- | --- |
| CC(O)C(=O)O (centres unmarked) [lactic acid] | did not show any significant effect |
| O=C(O)CCC(=O)O [succinic acid] | did not show any significant effect |
